Assay results as given in patent publication US20110045082A1, “AGGLOMERATES BY CRYSTALLISATION” (priority 1999, published 2011).
Each block holds one compound with its values, some of them ahead of it.

Tests used:
Type in all cases: physicochemical
[1] = Average diameter of agglomerates; conditions: agglomerates as obtained after drying
[2] = Loose bulk density of the powder
[3] = Tapped bulk density of the powder
[4] = Particle size distribution
[5] = Compressibility of the powder
[6] = agitator 3000 RPM, 0.9 mm nozzle
[7] = Table 1, agglomerated vs needle form
[8] = High flow (solution 15 l/h, acetone 312 l/h)
[9] = Low flow (flows decreased by a factor 2)

Compound: O=C(O)[C@H]1/C(=C/CO)O[C@@H]2CC(=O)N21 [Example 7, potassium clavulanate]
average diameter [1]: 500-1500 μm

Compound: O=C(O)[C@H]1/C(=C/CO)O[C@@H]2CC(=O)N21 [Example 5, potassium clavulanate]
average diameter [1]: 50-250 μm

Compound: O=C(O)[C@H]1/C(=C/CO)O[C@@H]2CC(=O)N21 [Example 6, potassium clavulanate]
average diameter [1]: 10-200 μm

Loose bulk density ([2]; Nozzle diameter 0.9 mm): 0.22 g/mL | Loose bulk density ([2]; Nozzle diameter 1.2 mm): 0.36 g/mL | Tapped bulk density ([3]; Nozzle diameter 0.9 mm): 0.3 g/mL | Tapped bulk density ([3]; Nozzle diameter 1.2 mm): 0.44 g/mL | particle size distribution 75-150 μm ([4]; Nozzle diameter 0.9 mm): 43.3 volume % | particle size distribution 150-250 μm ([4]; Nozzle diameter 0.9 mm): 8 volume % | particle size distribution 250-500 μm ([4]; Nozzle diameter 0.9 mm): 1 volume % | particle size distribution 500-710 μm ([4]; Nozzle diameter 0.9 mm): 0.2 volume % | particle size distribution <75 μm ([4]; Nozzle diameter 0.9 mm): 46.3 volume % | particle size distribution >710 μm ([4]; Nozzle diameter 0.9 mm): 0.1 volume % | particle size distribution 75-150 μm ([4]; Nozzle diameter 1.2 mm): 50.6 volume % | particle size distribution 150-250 μm ([4]; Nozzle diameter 1.2 mm): 31.3 volume % | particle size distribution 250-500 μm ([4]; Nozzle diameter 1.2 mm): 1.9 volume % | particle size distribution 500-710 μm ([4]; Nozzle diameter 1.2 mm): 0 volume % | particle size distribution <75 μm ([4]; Nozzle diameter 1.2 mm): 15.9 volume % | particle size distribution >710 μm ([4]; Nozzle diameter 1.2 mm): 0.3 volume %
Compound: potassium clavulanate [Example 12]

Compound: O=C(O)[C@H]1/C(=C/CO)O[C@@H]2CC(=O)N21 [Example 9, potassium clavulanate]
Loose bulk density [2, 6]: 0.22 g/mL | Tapped bulk density [3, 6]: 0.30 g/mL | Compressibility [5, 6]: 27% | particle size distribution 75-150 μm ([4]; Table 2, 3000 RPM): 43.3 volume % | particle size distribution 150-250 μm ([4]; Table 2, 3000 RPM): 8 volume % | particle size distribution 250-500 μm ([4]; Table 2, 3000 RPM): 1 volume % | particle size distribution 500-710 μm ([4]; Table 2, 3000 RPM): 0.2 volume % | particle size distribution <75 μm ([4]; Table 2, 3000 RPM): 46.3 volume % | particle size distribution >710 μm ([4]; Table 2, 3000 RPM): 0.1 volume %

Compound: O=C(O)[C@H]1/C(=C/CO)O[C@@H]2CC(=O)N21 [Example 3, potassium clavulanate]
average diameter [1]: 1000 μm

Compound: O=C(O)[C@H]1/C(=C/CO)O[C@@H]2CC(=O)N21 [Example 1, potassium clavulanate]
average diameter [1]: 100-1000 μm

Compound: O=C(O)[C@H]1/C(=C/CO)O[C@@H]2CC(=O)N21 [Example 2, potassium clavulanate]
average diameter [1]: 500-1500 μm

Compound: O=C(O)[C@H]1/C(=C/CO)O[C@@H]2CC(=O)N21 [Needles of Potassium clavulanate, potassium clavulanate, reference compound]
Loose bulk density [2, 7]: 0.18 g/mL | Tapped bulk density [3, 7]: 0.36 g/mL | Compressibility [5, 7]: 50%

Compound: O=C(O)[C@H]1/C(=C/CO)O[C@@H]2CC(=O)N21 [Example 10, potassium clavulanate]
Loose bulk density ([2]; agitator speed 1000 RPM): 0.39 g/mL | Loose bulk density ([2]; agitator speed 2000 RPM): 0.42 g/mL | Tapped bulk density ([3]; agitator speed 1000 RPM): 0.44 g/mL | Tapped bulk density ([3]; agitator speed 2000 RPM): 0.47 g/mL | Compressibility ([5]; agitator speed 1000 RPM): 11% | Compressibility ([5]; agitator speed 2000 RPM): 11% | particle size distribution 75-150 μm ([4]; agitator speed 1000 RPM): 6.5 volume % | particle size distribution 150-250 μm ([4]; agitator speed 1000 RPM): 20.7 volume % | particle size distribution 250-500 μm ([4]; agitator speed 1000 RPM): 60.8 volume % | particle size distribution 500-710 μm ([4]; agitator speed 1000 RPM): 6.1 volume % | particle size distribution <75 μm ([4]; agitator speed 1000 RPM): 5.1 volume % | particle size distribution >710 μm ([4]; agitator speed 1000 RPM): 0.2 volume % | particle size distribution 75-150 μm ([4]; agitator speed 2000 RPM): 2.4 volume % | particle size distribution 150-250 μm ([4]; agitator speed 2000 RPM): 9.5 volume % | particle size distribution 250-500 μm ([4]; agitator speed 2000 RPM): 57.3 volume % | particle size distribution 500-710 μm ([4]; agitator speed 2000 RPM): 27 volume % | particle size distribution <75 μm ([4]; agitator speed 2000 RPM): 1.8 volume % | particle size distribution >710 μm ([4]; agitator speed 2000 RPM): 1.5 volume %

Compound: O=C(O)[C@H]1/C(=C/CO)O[C@@H]2CC(=O)N21 [Example 11, potassium clavulanate]
Loose bulk density [2, 8]: 0.27 g/mL | Loose bulk density [2, 9]: 0.35 g/mL | Tapped bulk density [3, 8]: 0.36 g/mL | Tapped bulk density [3, 9]: 0.44 g/mL | Compressibility [5, 8]: 25% | Compressibility [5, 9]: 20% | particle size distribution 75-150 μm ([4]; High flow): 41.2 volume % | particle size distribution 150-250 μm ([4]; High flow): 9.3 volume % | particle size distribution 250-500 μm ([4]; High flow): 0.3 volume % | particle size distribution 500-710 μm ([4]; High flow): 0 volume % | particle size distribution <75 μm ([4]; High flow): 48.7 volume % | particle size distribution >710 μm ([4]; High flow): 0 volume % | particle size distribution 75-150 μm ([4]; Low flow): 50.4 volume % | particle size distribution 150-250 μm ([4]; Low flow): 1.1 volume % | particle size distribution 250-500 μm ([4]; Low flow): 0.6 volume % | particle size distribution 500-710 μm ([4]; Low flow): 0.4 volume % | particle size distribution <75 μm ([4]; Low flow): 48.8 volume % | particle size distribution >710 μm ([4]; Low flow): 0 volume %

Compound: O=C(O)[C@H]1/C(=C/CO)O[C@@H]2CC(=O)N21 [Example 4, potassium clavulanate]
average diameter [1]: 500-1000 μm

Compound: O=C(O)[C@H]1/C(=C/CO)O[C@@H]2CC(=O)N21 [Agglomerates of potassium clavulanate, potassium clavulanate]
Loose bulk density [2, 7]: 0.49 g/mL | Tapped bulk density [3, 7]: 0.68 g/mL | Compressibility [5, 7]: 28% | average diameter ([1]; listed as Example 8): 40-200 μm
